For 19 molecules, IC50 results are on record in patent publication US20260062443A1 (ALEXION PHARMACEUTICALS, INC., priority 2022, published 2026).

Each structure is given as a SMILES string. pIC50: −log10 of the molar value.

In this experiment the target is T1, Human complement C1s enzyme (Homo sapiens, UniProt P09871).
T1 sequence (P09871 438-688 limits assumed): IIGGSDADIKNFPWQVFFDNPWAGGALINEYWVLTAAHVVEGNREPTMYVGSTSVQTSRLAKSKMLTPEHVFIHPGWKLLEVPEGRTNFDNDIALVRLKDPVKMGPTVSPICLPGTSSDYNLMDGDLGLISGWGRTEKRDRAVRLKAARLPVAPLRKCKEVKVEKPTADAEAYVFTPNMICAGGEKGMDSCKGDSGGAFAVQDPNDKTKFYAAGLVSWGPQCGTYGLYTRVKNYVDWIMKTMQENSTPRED
T1 sequence (P09871 16-437 partner limits assumed): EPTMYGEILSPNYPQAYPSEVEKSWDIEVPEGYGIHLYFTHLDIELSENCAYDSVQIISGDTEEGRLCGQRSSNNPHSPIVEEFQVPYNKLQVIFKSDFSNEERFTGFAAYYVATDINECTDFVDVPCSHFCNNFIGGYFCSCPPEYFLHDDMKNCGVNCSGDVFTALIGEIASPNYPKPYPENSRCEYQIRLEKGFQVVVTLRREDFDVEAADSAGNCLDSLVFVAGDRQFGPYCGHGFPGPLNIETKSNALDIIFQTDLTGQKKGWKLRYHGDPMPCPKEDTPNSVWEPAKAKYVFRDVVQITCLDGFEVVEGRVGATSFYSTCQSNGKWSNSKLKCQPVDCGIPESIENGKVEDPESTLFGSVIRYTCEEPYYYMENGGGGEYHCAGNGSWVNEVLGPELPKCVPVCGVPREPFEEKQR
Briefly: Human C1s enzyme assay. It is filed as biochemical. Conditions: human complement C1s enzyme 1.16 nM, substrate Z-L-Lys-SBzl 100 μM, 5 min preincubation; read-out: IC50 (Stars), C1s Inhibiting Activity. The essentials:
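Serum-purified human C1s (1.16 nM final) preincubated 5 min at room temperature with compound in 50 mM Tris, 1 M NaCl, pH 7.5. Z-L-Lys-SBzl and DTNB added at 100 μM each; A405 followed every 30 s for 30 min, and IC50 obtained by nonlinear regression of reaction rates.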
On to `O=C(NCC(=O)N1CC2(C[C@H]1C(=O)NCc1cc3cnccc3[nH]1)OCCO2)c1ccc2c(c1)sc1ccccc12` [Compound 179, (S)-N-((1H-pyrrolo[3,2-c]pyridin-2-yl)methyl)-7-((dibenzo[b,d]thiophene-3-carbonyl)glycyl)-1,4-dioxa-7-azaspiro[4.4]nonane-8-carboxamide], for which the pIC50 was above 7.00. With `O=C(NCC(=O)N1C[C@H](OC(F)F)C[C@H]1C(=O)NCc1ccc2c(c1)CNC2)c1ccc2c(c1)Oc1ccccc1S2` [Compound 228, (2S,4R)-4-(difluoromethoxy)-N-(isoindolin-5-ylmethyl)-1-((phenoxathiine-3-carbonyl)glycyl)pyrrolidine-2-carboxamide], the negative-log IC50 (pIC50) is above 7.00. For `O=C(NCC(=O)N1CC2(C[C@H]1C(=O)NCc1cc3ccccc3[nH]1)OCCO2)c1ccc2c(c1)Oc1ccccc1S2` [Compound 29, (S)-N-((1H-indol-2-yl)methyl)-7-((phenoxathiine-3-carbonyl)glycyl)-1,4-dioxa-7-azaspiro[4.4]nonane-8-carboxamide], the pIC50 was below 6.00.

Take `C[C@@H](NC(=O)[C@@H]1C[C@@H](S(C)(=O)=O)CN1C(=O)CNC(=O)c1ccc2c(c1)-c1ccccc1C2(F)F)c1cc2cnccc2[nH]1` [Compound 72, (2S,4R)-N-((R)-1-(1H-pyrrolo[3,2-c]pyridin-2-yl)ethyl)-1-((9,9-difluoro-9H-fluorene-3-carbonyl)glycyl)-4-(methylsulfonyl)pyrrolidine-2-carboxamide]: the pIC50 is above 7.00. Take `O=C(NCC(=O)N1C[C@H](OC(F)F)C[C@H]1C(=O)NCc1ccc2cnccc2c1)c1ccc2c(c1)Oc1ccccc1S2` [Compound 236, (2S,4R)-4-(difluoromethoxy)-N-(isoquinolin-6-ylmethyl)-1-((phenoxathiine-3-carbonyl)glycyl)pyrrolidine-2-carboxamide]: the pIC50 was below 6.00. To `CCc1ccc(Oc2cccc(C(=O)NCC(=O)N3C[C@H](OC(F)F)C[C@H]3C(=O)NCc3cc4cnccc4[nH]3)c2)s1` [Compound 368, (2S,4R)-4-(difluoromethoxy)-1-[2-[[3-[(5-ethyl-2-thienyl)oxy]benzoyl]amino]acetyl]-N-(1H-pyrrolo[3,2-c]pyridin-2-ylmethyl)pyrrolidine-2-carboxamide] belongs above 7.00; to `Cc1cc(Oc2ccc(C)cc2F)cc(C(=O)NCC(=O)N2C[C@H](OC(F)F)C[C@H]2C(=O)NCc2cc3cnccc3[nH]2)c1` [Compound 328, (2S,4R)-N-((1H-pyrrolo[3,2-c]pyridin-2-yl)methyl)-4-(difluoromethoxy)-1-((3-(2-fluoro-4-methylphenoxy)-5-methylbenzoyl)glycyl)pyrrolidine-2-carboxamide], above 7.00. For the molecule `C[C@@]12C[C@@H]1N(C(=O)CNC(=O)CCCOc1ccccc1)[C@H](C(=O)NC1(c3nc4cnccc4[nH]3)CC1)C2` [Compound 109, (1S,3S,5S)-N-(1-(1H-imidazo[4,5-c]pyridin-2-yl)cyclopropyl)-5-methyl-2-((4-phenoxybutanoyl)glycyl)-2-azabicyclo[3.1.0]hexane-3-carboxamide], the pIC50 is below 6.00. In the case of `O=C(NCC(=O)N1CC2(C[C@H]1C(=O)N[C@H](CO)c1cc3cnccc3[nH]1)OCCO2)c1ccc(Oc2ccc(F)cc2)cc1` [Compound 94, (S)-7-((4-(4-fluorophenoxy)benzoyl)glycyl)-N-((S)-2-hydroxy-1-(1H-pyrrolo[3,2-c]pyridin-2-yl)ethyl)-1,4-dioxa-7-azaspiro[4.4]nonane-8-carboxamide], the pIC50 is below 6.00. As for `Cc1nc(N)ccc1CNC(=O)[C@@H]1C[C@]2(C)C[C@@H]2N1C(=O)CNC(=O)c1ccc2c(c1)Oc1ccccc1S2` [Compound 110, (1S,3S,5S)-N-((6-amino-2-methylpyridin-3-yl)methyl)-5-methyl-2-((phenoxathiine-3-carbonyl)glycyl)-2-azabicyclo[3.1.0]hexane-3-carboxamide], the figure is below 6.00; as for `O=C(NCC(=O)N1CC2(C[C@H]1C(=O)NCc1cc3cnccc3[nH]1)OCCO2)c1ccc2sc3ccccc3c2c1` [Compound 212, (S)-N-((1H-pyrrolo[3,2-c]pyridin-2-yl)methyl)-7-((dibenzo[b,d]thiophene-2-carbonyl)glycyl)-1,4-dioxa-7-azaspiro[4.4]nonane-8-carboxamide], above 7.00. To `Cc1ccc(Oc2cccc(C(=O)NCC(=O)N3C[C@H](OC(F)F)C[C@H]3C(=O)NCc3cc4cnccc4[nH]3)c2F)cc1` [Compound 327, (2S,4R)-N-((1H-pyrrolo[3,2-c]pyridin-2-yl)methyl)-4-(difluoromethoxy)-1-((2-fluoro-3-(p-tolyloxy)benzoyl)glycyl) pyrrolidine-2-carboxamide] belongs above 7.00; to `Cc1ccc(Oc2cc(C(=O)NCC(=O)N3C[C@H](OC(F)F)C[C@H]3C(=O)NCc3cc4cnccc4[nH]3)ccc2C)cc1` [Compound 244, (2S,4R)-N-((1H-pyrrolo[3,2-c]pyridin-2-yl)methyl)-4-(difluoromethoxy)-1-((4-methyl-3-(p-tolyloxy)benzoyl)glycyl) pyrrolidine-2-carboxamide], above 7.00. As for `O=C(NCC(=O)N1CC2(C[C@H]1C(=O)NCc1cc3cnccn3c1)OCCO2)c1ccc2c(c1)Oc1ccccc1S2` [Compound 111, 7-{2-[(Phenoxathiine-3-carbonyl)-amino]-acetyl}-1,4-dioxa-7-aza-spiro[4.4]nonane-8-carboxylic acid (pyrrolo[1,2-a]pyrazin-7-ylmethyl)-amide], the pIC50 is above 7.00. To `Cc1ccc(Oc2cccc(C(=O)NCC(=O)N3CC4(C[C@H]3C(=O)N[C@H](C)c3cc5cnccc5[nH]3)OCCO4)c2)c(F)c1` [Compound 321, (S)-N-((R)-1-(1H-pyrrolo[3,2-c]pyridin-2-yl)ethyl)-7-((3-(2-fluoro-4-methylphenoxy)benzoyl)glycyl)-1,4-dioxa-7-azaspiro[4.4]nonane-8-carboxamide] belongs above 7.00; to `C[C@@H](NC(=O)[C@@H]1C[C@@H](OC(F)F)CN1C(=O)CN1Cc2cc(-c3ccc(F)cc3Cl)ccc2C1=O)c1cc2cnccc2[nH]1` [Compound 124, (2S,4R)-N-((R)-1-(1H-pyrrolo[3,2-c]pyridin-2-yl)ethyl)-1-(2-(5-(2-chloro-4-fluorophenyl)-1-oxoisoindolin-2-yl)acetyl)-4-(difluoromethoxy)pyrrolidine-2-carboxamide], above 7.00. To `O=C(NCC(=O)N1CCC[C@H]1C(=O)NCc1cc2cnccc2[nH]1)c1ccc2c(c1)Oc1ccccc1S2` [Compound 188, (S)-N-((1H-pyrrolo[3,2-c]pyridin-2-yl)methyl)-1-((phenoxathiine-3-carbonyl)glycyl)pyrrolidine-2-carboxamide] belongs above 7.00; to `Cc1ccc(Oc2cccc(C(=O)NCC(=O)N3C[C@H](OC(F)F)C[C@H]3C(=O)NCc3cc4cnccc4[nH]3)c2)s1` [Compound 366, (2S,4R)-N-((1H-pyrrolo[3,2-c]pyridin-2-yl)methyl)-4-(difluoromethoxy)-1-((3-((5-methylthiophen-2-yl)oxy)benzoyl)glycyl)pyrrolidine-2-carboxamide], above 7.00.

Consider `CN1CCc2sc(CNC(=O)[C@@H]3C[C@@H](OC(F)F)CN3C(=O)CNC(=O)c3ccc4c(c3)Oc3ccccc3S4)cc2C1` [Compound 347, (2S,4R)-4-(difluoromethoxy)-N-((5-methyl-4,5,6,7-tetrahydrothieno[3,2-c]pyridin-2-yl)methyl)-1-((phenoxathiine-3-carbonyl)glycyl) pyrrolidine-2-carboxamide], for which the negative logarithm of the IC50 (pIC50) is below 6.00.

Usually pIC50 stands for the IC50 on a negative log10 scale, so that one unit is a factor of ten.
